Source: ChEMBL document CHEMBL1201862, “PubChem BioAssay data set” (2004)
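48-hour exposure; five concentrations; linearly interpolated endpoints. GI50 marks 50% less growth.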 Activity calls are given as the source filed them. No stated cut-off is given here; in the data, active = GI50 up to about 1.1 µM and inactive = higher.

Experiments:
Experiment in all cases: NCI tumour cell line growth inhibition, 48 h
[1] = test system: RPMI-8226
[2] = test system: SK-MEL-5
[3] = test system: OVCAR-8
[4] = test system: COLO 205
[5] = test system: A549
[6] = test system: SR
[7] = test system: SK-MEL-2
[8] = test system: CCRF-CEM
[9] = test system: M14
[10] = test system: A498
[11] = test system: MOLT-4
[12] = test system: SF-268
[13] = test system: SW-620
[14] = test system: UACC-257
[15] = test system: LOX IMVI
[16] = test system: HL-60
[17] = test system: MDA-N
[18] = test system: SN12C
[19] = test system: BT-549
[20] = test system: NCI-H226

Cc1cc(C)n(CC(Cn2nc(C)cc2C)=C(/C(Cl)=C(/Cl)Nc2ccc([N+](=O)[O-])cc2)[N+](=O)[O-])n1
GI50 [1]: 1.93 µM (inactive) | GI50 [2]: 2.29 µM (inactive) | GI50 [3]: 3.35 µM (inactive) | GI50 [4]: 2.67 µM (inactive) | GI50 [5]: 3.43 µM (inactive) | GI50 [6]: 2.48 µM (inactive) | GI50 [7]: 3.05 µM (inactive) | GI50 [8]: 0.558 µM (active) | GI50 [9]: 4.37 µM (inactive) | GI50 [10]: 3.37 µM (inactive) | GI50 [11]: 1.79 µM (inactive) | GI50 [12]: 5.01 µM (inactive) | GI50 [13]: 2.42 µM (inactive) | GI50 [14]: 3.4 µM (inactive) | GI50 [15]: 2.3 µM (inactive) | GI50 [16]: 1.54 µM (inactive) | GI50 [17]: 3.74 µM (inactive) | GI50 [18]: 3.82 µM (inactive) | GI50 [19]: 3.33 µM (inactive) | GI50 [20]: 10.2 µM (inactive)

COC(=O)[C@]12CCC(C)(C)C[C@H]1C1=CC[C@@H]3[C@@]4(C)CC[C@H](OC5OC(CO)C(O)C(O)C5OC5OC(CO)C(O)C(O)C5O)C(C)(C)[C@@H]4CC[C@@]3(C)[C@]1(C)CC2 (stereo not given in full)
GI50 [1]: 19.3 µM (inactive) | GI50 [2]: 15.8 µM (inactive) | GI50 [3]: 15.9 µM (inactive) | GI50 [4]: 3.09 µM (inactive) | GI50 [5]: 8.83 µM (inactive) | GI50 [6]: 7.85 µM (inactive) | GI50 [7]: 10.7 µM (inactive) | GI50 [8]: 15.7 µM (inactive) | GI50 [9]: 3.91 µM (inactive) | GI50 [10]: 11.3 µM (inactive) | GI50 [11]: 17.5 µM (inactive) | GI50 [12]: 13.7 µM (inactive) | GI50 [13]: 14.2 µM (inactive) | GI50 [14]: 7.85 µM (inactive) | GI50 [15]: 6.15 µM (inactive) | GI50 [16]: 4.93 µM (inactive) | GI50 [17]: 5.43 µM (inactive) | GI50 [18]: 4.62 µM (inactive) | GI50 [19]: 17.4 µM (inactive) | GI50 [20]: 3.43 µM (inactive)

CC(C)NC(=O)OCc1c(COC(=O)NC(C)C)n(C)c2c1ccc1ccsc12
GI50 [1]: 2.94 µM (inactive) | GI50 [2]: 10.7 µM (inactive) | GI50 [3]: 9.59 µM (inactive) | GI50 [4]: 12.9 µM (inactive) | GI50 [5]: 9.98 µM (inactive) | GI50 [6]: 2.37 µM (inactive) | GI50 [7]: 12.7 µM (inactive) | GI50 [8]: 2.25 µM (inactive) | GI50 [9]: 8.3 µM (inactive) | GI50 [10]: 9.73 µM (inactive) | GI50 [11]: 1.71 µM (inactive) | GI50 [12]: 4.38 µM (inactive) | GI50 [13]: 5.19 µM (inactive) | GI50 [14]: 13.5 µM (inactive) | GI50 [15]: 5.57 µM (inactive) | GI50 [16]: 2.69 µM (inactive) | GI50 [17]: 12.4 µM (inactive) | GI50 [18]: 5.66 µM (inactive) | GI50 [19]: 7.16 µM (inactive) | GI50 [20]: 7.41 µM (inactive)
